The subject of this test is HCV genotype 1b replicon. Put plainly: HCV replicon assay, cell ELISA with antibody to replicon-encoded NS3/4A (genotype 1b replicon). Conditions: Hepatitis C virus, 96 h, read-out: Replicon 1b IC50 (nM), HCV genotype 1b replicon cells, 96 hours incubation, NS3/4A ELISA readout. The test is classed as cell-based, hepatitis C virus. The method in brief: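 An ELISA on lysed cells, using an antibody against NS3/4A protease, served as the proxy for replicon RNA. Cells had first been exposed for 96 h to serially diluted compound in G418-free conditions. Percent of DMSO control was fitted with a four-parameter function to give IC50.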
(In general: Replicon systems follow genome replication, usually without infectious particles.)

Among the data in patent US20120328569A1, “INHIBITORS OF HEPATITIS C VIRUS NS5B POLYMERASE” (priority 2010, published 2012) are IC50 values, retold here.

As for `CNC(=O)c1c(-c2ccc(F)cc2)oc2cc(N(C)S(C)(=O)=O)c(-c3cc(F)cc(-c4nc5ccccc5s4)c3)cc12` [Example 289], the IC50 was found to be 5.4 nM.

For the molecule `CNC(=O)c1c(-c2ccc(F)cc2)oc2cc(N(C)S(C)(=O)=O)c(-c3cc(-c4nc5ccccc5s4)ccc3F)cc12` [Example 290], the IC50 is 6.9 nM.

For the molecule `CNC(=O)c1c(-c2ccc(F)cc2)oc2cc(N(C)S(C)(=O)=O)c(-c3cccc(-c4nc5cc(F)ccc5s4)c3)cc12` [Example 292], the IC50 amounted to 5.9 nM.

Consider `CNC(=O)c1c(-c2ccc(F)cc2)oc2cc(N(C)S(C)(=O)=O)c(-c3ccc(F)c(-c4nc5ccc(F)cc5s4)c3)cc12` [Example 293], for which the IC50 turned out to be 8.6 nM.

Regarding `CNC(=O)c1c(-c2ccc(F)cc2)oc2cc(N(C)S(C)(=O)=O)c(-c3ccc(F)c(-c4nc5ccc(C)cc5s4)c3)cc12` [Example 294], the IC50 worked out at 10 nM.

For `CNC(=O)c1c(-c2ccc(F)cc2)oc2cc(N(C)S(C)(=O)=O)c(-c3cccc(-c4nc5cccc(C#N)c5s4)c3)cc12` [Example 295], the IC50 is 4.1 nM.

Regarding `CNC(=O)c1c(-c2ccc(F)cc2)oc2cc(N(C)S(C)(=O)=O)c(-c3ccc(F)c(-c4nc5ccccc5s4)c3F)cc12` [Example 296], the IC50 came to 64.1 nM.

`CNC(=O)c1c(-c2ccc(F)cc2)oc2cc(N(C)S(C)(=O)=O)c(-c3cccc(-c4nc5ccc(CN)cc5s4)c3)cc12` [Example 297, 5-(3-(6-(aminomethyl)benzo[d]thiazol-2-yl)phenyl)-2-(4-fluorophenyl)-N-methyl-6-(N-methylmethylsulfonamido)benzofuran-3-carboxamide]: the IC50 stood at 20.5 nM.

With `CNC(=O)c1c(-c2ccc(F)cc2)oc2cc(N(C)S(C)(=O)=O)c(-c3cccc(-c4nc5ccc(CN(C)C)cc5s4)c3)cc12` [Example 298, 5-(3-(6-((dimethylamino)methyl)benzo[d]thiazol-2-yl)phenyl)-2-(4-fluorophenyl)-N-methyl-6-(N-methylmethylsulfonamido)benzofuran-3-carboxamide], the IC50 worked out at 6 nM.

`CNC(=O)c1c(-c2ccc(F)cc2)oc2cc(N(C)S(C)(=O)=O)c(-c3cccc(-c4nc5cccnc5[nH]4)c3)cc12` [Example 299, 5-(3-(3H-imidazo[4,5-b]pyridin-2-yl)phenyl)-2-(4-fluorophenyl)-N-methyl-6-(N-methylmethylsulfonamido)benzofuran-3-carboxamide]: the IC50 worked out at 3.3 nM.

On to `CNC(=O)c1c(-c2ccc(F)cc2)oc2cc(N(C)S(C)(=O)=O)c(-c3ccc(F)c(-c4nc5ccccc5[nH]4)c3)cc12` [Example 300], for which the IC50 was found to be 1.5 nM.

`CNC(=O)c1c(-c2ccc(F)cc2)oc2cc(N(C)S(C)(=O)=O)c(-c3ccc(F)c(-c4nc5cc(F)ccc5[nH]4)c3)cc12` [Example 301]: the IC50 came out at 1.9 nM.

In the case of `CNC(=O)c1c(-c2ccc(F)cc2)oc2cc(N(C)S(C)(=O)=O)c(-c3ccc(F)c(-c4nc5cc(C)ccc5[nH]4)c3)cc12` [Example 302], the IC50 is 3.1 nM.

With `CNC(=O)c1c(-c2ccc(F)cc2)oc2cc(N(C)S(C)(=O)=O)c(-c3cccc(-c4nc5c(C)cccc5[nH]4)c3)cc12` [Example 303], the IC50 amounted to 1.8 nM.

On to `CNC(=O)c1c(-c2ccc(F)cc2)oc2cc(N(C)S(C)(=O)=O)c(-c3cccc(-c4nc5c(F)cccc5[nH]4)c3)cc12` [Example 304], for which the IC50 came out at 1.3 nM.

Consider `CNC(=O)c1c(-c2ccc(F)cc2)oc2cc(N(C)S(C)(=O)=O)c(-c3cc(F)cc(-c4nc5cccnc5[nH]4)c3)cc12` [Example 305], for which the IC50 is 1.1 nM.

Take `CNC(=O)c1c(-c2ccc(F)cc2)oc2cc(N(C)S(C)(=O)=O)c(-c3cc(F)cc(-c4nc5ccc(OC)nc5[nH]4)c3)cc12` [Example 306]: the IC50 was 28.8 nM.

Take `CNC(=O)c1c(-c2ccc(F)cc2)oc2cc(N(C)S(C)(=O)=O)c(-c3cc(F)cc(-c4nc5c(C)ccnc5[nH]4)c3)cc12` [Example 307]: the IC50 turned out to be 2.4 nM.

As to `CNC(=O)c1c(-c2ccc(F)cc2)oc2cc(N(C)S(C)(=O)=O)c(-c3ccc(F)c(-c4nc5cccnc5[nH]4)c3)cc12` [Example 308], the IC50 amounted to 2.5 nM.

With `CNC(=O)c1c(-c2ccc(F)cc2)oc2cc(N(C)S(C)(=O)=O)c(-c3ccc(F)c(-c4nc5ccc(OC)nc5[nH]4)c3)cc12` [Example 309], the IC50 came to 3.7 nM.

With `CNC(=O)c1c(-c2ccc(F)cc2)oc2cc(N(C)S(C)(=O)=O)c(-c3ccc(F)c(-c4nc5c(C)ccnc5[nH]4)c3)cc12` [Example 310], the IC50 is 1.8 nM.

For the molecule `CNC(=O)c1c(-c2ccc(F)cc2)oc2cc(N(C)S(C)(=O)=O)c(-c3ccc(F)c(-c4nc5cc(Cl)cnc5[nH]4)c3)cc12` [Example 311], the IC50 was found to be 1.7 nM.

Turning to `CNC(=O)c1c(-c2ccc(F)cc2)oc2cc(N(C)S(C)(=O)=O)c(-c3ccc(OC)c(-c4nc5cccnc5[nH]4)c3)cc12` [Example 312], the IC50 turned out to be 1.1 nM.

For `CNC(=O)c1c(-c2ccc(F)cc2)oc2cc(N(C)S(C)(=O)=O)c(-c3cc(OC)cc(-c4nc5cccnc5[nH]4)c3)cc12` [Example 314], the IC50 stood at 1.5 nM.

For `CNC(=O)c1c(-c2ccc(F)cc2)oc2cc(N(C)S(C)(=O)=O)c(-c3cc(OC)cc(-c4nc5ccc(OC)nc5[nH]4)c3)cc12` [Example 315], the IC50 worked out at 4.5 nM.

As for `CNC(=O)c1c(-c2ccc(F)cc2)oc2cc(N(C)S(C)(=O)=O)c(-c3cc(OC)cc(-c4nc5c(C)ccnc5[nH]4)c3)cc12` [Example 316], the IC50 worked out at 2.8 nM.

As to `CNC(=O)c1c(-c2ccc(F)cc2)oc2cc(N(C)S(C)(=O)=O)c(-c3cc(OC)cc(-c4nc5cc(Cl)cnc5[nH]4)c3)cc12` [Example 317], the IC50 worked out at 2.9 nM.

Take `CNC(=O)c1c(-c2ccc(F)cc2)oc2cc(N(C)S(C)(=O)=O)c(-c3cccc(-c4nc5c(C)ccnc5[nH]4)c3O)cc12` [Example 318]: the IC50 worked out at 18.7 nM.

For `CNC(=O)c1c(-c2ccc(F)cc2)oc2cc(N(C)S(C)(=O)=O)c(-c3ccc(Cl)c(-c4nc5cccnc5[nH]4)c3)cc12` [Example 319], the IC50 is 13.6 nM.

Turning to `CNC(=O)c1c(-c2ccc(F)cc2)oc2cc(N(C)S(C)(=O)=O)c(-c3ccc(Cl)c(-c4nc5ccc(OC)nc5[nH]4)c3)cc12` [Example 320], the IC50 was 13.1 nM.

For `CNC(=O)c1c(-c2ccc(F)cc2)oc2cc(N(C)S(C)(=O)=O)c(-c3ccc(Cl)c(-c4nc5c(C)ccnc5[nH]4)c3)cc12` [Example 321], the IC50 is 6.6 nM.

Turning to `CNC(=O)c1c(-c2ccc(F)cc2)oc2cc(N(C)S(C)(=O)=O)c(-c3ccc(Cl)c(-c4nc5cc(Cl)cnc5[nH]4)c3)cc12` [Example 322], the IC50 turned out to be 19.5 nM.

Take `CNC(=O)c1c(-c2ccc(F)cc2)oc2cc(N(C)S(C)(=O)=O)c(-c3cc(C#N)cc(-c4nc5cccnc5[nH]4)c3)cc12` [Example 323]: the IC50 stood at 2.4 nM.

In the case of `CNC(=O)c1c(-c2ccc(F)cc2)oc2cc(N(C)S(C)(=O)=O)c(-c3cc(C#N)cc(-c4nc5ccc(OC)nc5[nH]4)c3)cc12` [Example 324], the IC50 is 3.5 nM.

In the case of `CNC(=O)c1c(-c2ccc(F)cc2)oc2cc(N(C)S(C)(=O)=O)c(-c3cc(C#N)cc(-c4nc5c(C)ccnc5[nH]4)c3)cc12` [Example 325], the IC50 is 3.2 nM.

In the case of `CNC(=O)c1c(-c2ccc(F)cc2)oc2cc(N(C)S(C)(=O)=O)c(-c3cccc(-c4nc5ccc(OC)nc5[nH]4)c3)cc12` [Example 327], the IC50 amounted to 3.8 nM.
